Columns and labels:
[1] = test system: Female New Zealand rabbits; assay: Pelvic nerve-stimulated female genital blood flow, anaesthetised rabbit model of sexual arousal; format: in vivo
Experimental: Female New Zealand rabbits (~2.5kg) were pre-medicated with a combination of Medetomidine (Domitor®) 0.5ml/kg i.m., and Ketamine (Vetalar®) 0.25ml/kg i.m. whilst maintaining oxygen intake via a face mask. The rabbits were tracheotomised using a Portex™ uncuffed endotracheal tube 3 ID., connected to ventilator and maintained at a ventilation rate of 30-40 breaths per minute, with an approximate tidal volume of 18-20 ml, and a maximum airway pressure of 10 cm H2O. Anaesthesia was then switched to Isoflurane and ventilation continued with O2 at 21/min. The right marginal ear vein was cannulated using a 23G or 24G catheter, and Lactated Ringer solution perfused at 0.5ml/min. The rabbit was maintained at 3% Isoflurane during invasive surgery, dropping to 2% for maintenance anaesthesia.
The left groin area of the rabbit was shaved and a vertical incision was made approximately 5cm in length along the thigh. The femoral vein and artery were exposed, isolated and then cannulated with a PVC catheter (17G) for the infusion of drugs and compounds. Cannulation was repeated for the femoral artery, inserting the catheter to a depth of 10cm to ensure that the catheter reached the abdominal aorta. This arterial catheter was linked to a Gould system to record blood pressure. Samples for blood gas analysis were also taken via the arterial catheter. Systolic and diastolic pressures were measured, and the mean arterial pressure calculated using the formula (diastolic x2 + systolic) ö3. Heart rate was measured via the pulse oxymeter and Po-ne-mah data acquisition software system (Ponemah Physiology Platform, Gould Instrument Systems Inc). A ventral midline incision was made into the abdominal cavity. The incision was about 5cm in length just above the pubis. The fat and muscle was bluntly dissected away to reveal the hypogastric nerve which runs down the body cavity. It was essential to keep close to the side curve of the pubis wall in order to avoid damaging the femoral vein and artery which lie above the pubis. The sciatic and pelvic nerves lie deeper and were located after further dissection on the dorsal side of the rabbit. Once the sciatic nerve is identified, the pelvic nerve was easily located. The term pelvic nerve is loosely applied; anatomy books on the subject fail to identify the nerves in sufficient detail. However, stimulation of the nerve causes an increase in vaginal and clitoral blood flow, and innervation of the pelvic region. The pelvic nerve was freed away from surrounding tissue and a Harvard bipolar stimulating electrode was placed around the nerve. […] A frequency response curve was determined at the start of each experiment in order to determine the optimum frequency to use as a sub-maximal response, normally 4Hz. […]

conscious male rat = assay: Penile intracavernosal pressure in the conscious male rat (telemetry); format: in vivo
Experimental: In addition to treating women with FSD, bombesin antagonists will be useful in treating male erectile dysfunction (MED. Both the non-selective BB1/2 antagonists (Compound 1; 10mg/kg sc) and the selective BB1 receptor antagonist (Compound 3; 15mg/kg sc) is pro-erectile in a conscious rat model of penile erection (Figures 24 and 25). Erectile responses were recorded by measuring intracavernosal pressure using surgically implanted telemetric device. The specific details the surgical procedures, data acquisition and analysis can be found in detail in Bemabe 1999.
Compound 1 and compound 3 were dissolved in 50% β-cyclodextrin in saline. They were administered at a dose of 15mg/kg subcutaneously (sc). […] These increases equate to penile erection. Both Compounds 1 and 3 induced a number of erections in a similar manner to those observed with apomorphine or melanotan-II - both of which are clinically proven agents that are effective in the treatment of MED. Moreover the amplitude of the increases observed were similar to those observed with apomorphine or melanotan-II. The mechanism of action is thought to be similar to the effects on female genital flow ie CNS potentiation of the descending neuronal pathways that control penile erection.

human NMB receptor (BB1) = target: T1, human NMB receptor (BB1) (Homo sapiens, UniProt P28336); assay: BB1 binding assay ([125I][Tyr4]bombesin, CHO-K1 cell membranes)
T1 construct: expressed in transfected cells
Experimental: (§1) In the following experiments, measurement of BB1 and BB2 binding was as follows. […] The final pellet was resuspended in assay buffer to a final cell concentration of 1.5 × 10^5/mL. […] Nonspecific binding was defined by 1µM bombesin. […] Radioactivity bound was determined using a gamma counter.
(§2) All competition data was analysed using nonlinear regression utilizing iterative curve-plotting procedures in Prism® (GraphPad Software Inc., San Diego, USA).

human GRP receptor (BB2) = target: T2, human GRP receptor (BB2) (Homo sapiens, UniProt P30550); assay: BB2 binding assay ([125I][Tyr4]bombesin, CHO-K1 cell membranes)
T2 construct: expressed in transfected cells
Experimental: as §1, §2

[2] = Table 7, N-terminal sulfonamide derivatives

T1 sequence (P28336 whole entry): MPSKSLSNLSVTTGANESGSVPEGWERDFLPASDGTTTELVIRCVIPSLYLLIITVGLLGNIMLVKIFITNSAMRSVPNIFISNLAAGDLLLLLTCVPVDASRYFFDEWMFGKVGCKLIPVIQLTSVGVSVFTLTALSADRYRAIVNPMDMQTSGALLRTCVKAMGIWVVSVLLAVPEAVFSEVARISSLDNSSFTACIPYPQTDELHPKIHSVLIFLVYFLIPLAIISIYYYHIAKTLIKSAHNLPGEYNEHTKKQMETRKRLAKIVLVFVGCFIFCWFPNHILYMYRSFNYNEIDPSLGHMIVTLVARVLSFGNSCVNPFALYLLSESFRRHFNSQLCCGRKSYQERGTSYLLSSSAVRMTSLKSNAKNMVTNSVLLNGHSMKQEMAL
T2 sequence (P30550 whole entry): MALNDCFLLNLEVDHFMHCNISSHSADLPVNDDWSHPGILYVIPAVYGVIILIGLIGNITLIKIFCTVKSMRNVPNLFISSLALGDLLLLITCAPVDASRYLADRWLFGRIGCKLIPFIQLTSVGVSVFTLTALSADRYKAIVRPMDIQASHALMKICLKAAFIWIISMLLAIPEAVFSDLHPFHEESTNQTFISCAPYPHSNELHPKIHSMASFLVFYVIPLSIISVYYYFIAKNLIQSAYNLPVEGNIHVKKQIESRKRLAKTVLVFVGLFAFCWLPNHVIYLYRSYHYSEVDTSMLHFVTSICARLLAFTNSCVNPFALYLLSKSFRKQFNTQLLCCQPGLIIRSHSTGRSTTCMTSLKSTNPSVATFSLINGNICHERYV

`C[C@@](Cc1c[nH]c2ccccc12)(NC(=O)Nc1ccc([N+](=O)[O-])cc1)C(=O)NCC1(c2ccc(N)cc2)CCCCC1` [Compound 3, (2S)-N-{[1-(4-aminophenyl)cyclohexyl]methyl}-3-(1H-indol-3-yl)-2-methyl-2-{[(4-nitroanilino)-carbonyl]amino}propanamide] was tested, and the “basal genital blood flow in the absence of PNS” value ([1]; 15mg/kg sc) was “no effect”, the “pelvic-nerve stimulated (PNS) increases in genital (vaginal and clitoral) blood flow” value ([1]; 15mg/kg sc in 50% β-cyclodextrin in saline) was “potent enhancer” and the “erectile response (penile erection)” value (conscious male rat; Compound 1 10mg/kg sc, Compound 3 15mg/kg sc) was “pro-erectile”. For the same compound, the intracavernosal pressure (conscious male rat; one hour after 10mg/kg sc Compound 1, 45 minutes after 15mg/kg sc compound 3) was “significant increases in intracavernosal pressure”.
`C[C@@](Cc1c[nH]c2ccccc12)(NC(=O)c1ccccc1)C(=O)NCC1(c2ccccn2)CCCCC1` [Example 32, N-{(S)-2-(1H-Indol-3-yl)-1-methyl-1-[(1-pyridin-2-yl-cyclohexylmethyl)-carbamoyl]-ethyl}-benzamide] was tested, and the IC50 (human NMB receptor (BB1); Table 3, N-acyl derivatives) was 2500 nM.
For `Cc1ccc(C(=O)N[C@@](C)(Cc2c[nH]c3ccccc23)C(=O)NCC2(c3ccccn3)CCCCC2)cc1` [Example 33, N-{(S)-2-(1H-Indol-3-yl)-1-methyl-1-[(1-pyridin-2-yl-cyclohexylmethyl)-carbamoyl]-ethyl}-4-methyl-benzamide], the IC50 (human NMB receptor (BB1); Table 3, N-acyl derivatives) was 2500 nM.
For `CN(C)c1cccc(C(=O)N[C@@](C)(Cc2c[nH]c3ccccc23)C(=O)NCC2(c3ccccn3)CCCCC2)c1` [Example 42, Dimethylamino-N-{(S)-2-(1H-indol-3-yl)-1-methyl-1-[(1-pyridin-2-yl-cyclohexyl-methyl)-carbamoyl]-ethyl}-benzamide], the IC50 (human NMB receptor (BB1); Table 3, N-acyl derivatives) was 2520 nM and the IC50 (human GRP receptor (BB2); Table 3, N-acyl derivatives) was greater than 10000 nM.
For “(S)-3-(1H-Indol-3-yl)-2-methyl-2-(nitro-trifluoromethyl-benzenesulfonylamino)-N-(1-pyridin-2-yl-cyclohexylmethyl)-propionamide [Example 167]”, the IC50 (human NMB receptor (BB1); [2]) was 758 nM and the IC50 (human GRP receptor (BB2); [2]) was greater than 10000 nM.

From patent EP1333824B1, “TREATMENT OF SEXUAL DYSFUNCTION WITH BOMBESIN RECEPTOR ANTAGONISTS” (Warner-Lambert Company LLC, priority 2000, dated 2002)
